Experiments:
[1] = Breath Biopsy: VOCs in exhaled breath after ingestion of a peppermint capsule; assay type: in vivo; settings: for VOC level in breath compared to baseline pre-ingestion controls: breath captured 30 minutes after consumption of the peppermint capsule, FIG. 1; for VOC level in breath compared to baseline pre-ingestion controls / relative abundance among peppermint-related compounds in breath: single individual
Procedure: For comparison, two breath collections were made from the same individual prior to ingestion to provide a baseline concentration for the VOCs of interest. Breath samples were analysed in the Breath Biopsy® Clinical Lab by FAIMS and TD-GC-TOF mass spectrometry.

CYP3A4 = CYP3A4 (Homo sapiens, UniProt P08684); settings: cited from earlier work
[2] = test system: CYP2C19 and CYP2C9 enzymes; assay: Clinical study: limonene in exhaled breath, patients treated with an atherothrombotic drug versus untreated controls; assay type: in vivo; settings: drug metabolised by CYP2C19 and CYP2C9 competes with limonene metabolism; FIG. 5
Description: FIG. 5. Limonene concentration in the exhaled breath of patients prescribed with an atherothrombotic drug that is metabolised by CYP2C19 and CYP2C9 enzymes.
The drug is metabolised by CYP2C19 and CYP2C9 enzymes. […] As less limonene is metabolised compare dot eh control group.

[3] = after consumption of the peppermint capsule

CYP3A4, sequence (P08684 whole entry): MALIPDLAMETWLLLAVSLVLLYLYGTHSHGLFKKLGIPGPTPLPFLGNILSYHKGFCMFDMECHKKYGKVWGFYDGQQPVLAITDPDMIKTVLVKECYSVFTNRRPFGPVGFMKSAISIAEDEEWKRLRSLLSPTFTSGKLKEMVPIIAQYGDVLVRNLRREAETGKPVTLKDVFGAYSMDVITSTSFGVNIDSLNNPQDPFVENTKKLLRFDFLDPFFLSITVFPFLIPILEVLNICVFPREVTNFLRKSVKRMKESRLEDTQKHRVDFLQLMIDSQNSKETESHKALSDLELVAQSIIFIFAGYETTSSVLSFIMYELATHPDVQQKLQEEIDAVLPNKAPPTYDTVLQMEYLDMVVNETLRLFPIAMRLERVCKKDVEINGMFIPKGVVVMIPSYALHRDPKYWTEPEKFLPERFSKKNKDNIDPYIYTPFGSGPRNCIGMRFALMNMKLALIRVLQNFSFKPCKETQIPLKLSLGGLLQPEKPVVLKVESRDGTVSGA

SMILES | VOC level in breath compared to baseline pre-ingestion controls [1] | metabolising enzyme (CYP3A4) | concentration in breath [1, 3] | relative abundance among peppermint-related compounds in breath [1, 3] | limonene in exhaled breath, drug-treated patients versus untreated control group [2]
CC1=CCC2CC1C2(C)C (stereo not drawn) [α-pinene] | large increase |  |  |  | 
CC12CCC(CC1)C(C)(C)O2 [eucalyptol] | large increase | specifically metabolised by CYP3A4 |  |  | 
C=C(C)[C@H]1CC=C(C)CC1 [limonene] | large increase |  | part-per-trillion (ppt) concentrations | most abundant | higher secretion of limonene into breath
CC1CCC(C(C)C)C(O)C1 (racemic) [(±)-menthol] | large increase |  |  |  | 
C=C1CCC2CC1C2(C)C (stereo not drawn) [β-pinene] | large increase |  |  | most abundant | 

Reference: patent US20220228192A1, “Method To Evaluate Metabolic Activity Of Liver Enzymes” (Owlstone Medical Limited, priority 2018, published 2022)
